Measurements reported in ChEMBL document CHEMBL1201862, “PubChem BioAssay data set” (2004).
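Growth conditions: 96-well plates. Treatment: test compound, 48 hours, 5 concentrations. Analysis: linear interpolation between bracketing concentrations; unreached endpoints set to highest concentration. GI50: concentration for 50% inhibition of growth.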 Active and inactive are the calls of the source. No stated cut-off is given here; in the data, active = GI50 up to about 1.1 µM and inactive = higher.

What was measured:
Test in all cases: inhibition of tumour cell growth, NCI panel, 48 h
MCF7 = test system: MCF7
A498 = test system: A498
HCT-15 = test system: HCT-15
COLO 205 = test system: COLO 205
SN12C = test system: SN12C
RXF 393 = test system: RXF 393
SK-MEL-2 = test system: SK-MEL-2
SK-MEL-28 = test system: SK-MEL-28
NCI-H23 = test system: NCI-H23
UACC-257 = test system: UACC-257
HT-29 = test system: HT-29
MDA-MB-231 = test system: MDA-MB-231
OVCAR-5 = test system: OVCAR-5
T47D = test system: T47D
HOP-62 = test system: HOP-62
HCC 2998 = test system: HCC 2998
CAKI-1 = test system: CAKI-1
MOLT-4 = test system: MOLT-4
SF-539 = test system: SF-539
KM12 = test system: KM12
SW-620 = test system: SW-620
RPMI-8226 = test system: RPMI-8226
HOP-92 = test system: HOP-92
UO-31 = test system: UO-31
HL-60 = test system: HL-60
NCI-H522 = test system: NCI-H522
OVCAR-4 = test system: OVCAR-4
786-0 = test system: 786-0
K562 = test system: K562
SF-295 = test system: SF-295
OVCAR-8 = test system: OVCAR-8
SK-OV-3 = test system: SK-OV-3
DU-145 = test system: DU-145
NCI-H226 = test system: NCI-H226
UACC-62 = test system: UACC-62
HCT-116 = test system: HCT-116
SF-268 = test system: SF-268
BT-549 = test system: BT-549
SK-MEL-5 = test system: SK-MEL-5
A549 = test system: A549
EKVX = test system: EKVX
IGROV-1 = test system: IGROV-1
U-251 = test system: U-251
NCI-H460 = test system: NCI-H460
Malme-3M = test system: Malme-3M
M14 = test system: M14
MDA-MB-435 = test system: MDA-MB-435
ACHN = test system: ACHN
OVCAR-3 = test system: OVCAR-3
LOX IMVI = test system: LOX IMVI
SNB-19 = test system: SNB-19
PC-3 = test system: PC-3
MDA-N = test system: MDA-N
SNB-75 = test system: SNB-75
NCI/ADR-RES = test system: NCI/ADR-RES
Hs-578T = test system: Hs-578T
TK-10 = test system: TK-10
CCRF-CEM = test system: CCRF-CEM

CC(C)(C)c1ccc(OCC(=O)O)c(Cl)c1
GI50 (MCF7): > 100 µM (inactive) | GI50 (A498): > 100 µM (inactive) | GI50 (HCT-15): > 100 µM | GI50 (COLO 205): > 100 µM (inactive) | GI50 (SN12C): > 100 µM (inactive) | GI50 (RXF 393): > 100 µM (inactive) | GI50 (SK-MEL-2): > 100 µM (inactive) | GI50 (SK-MEL-28): > 100 µM (inactive) | GI50 (NCI-H23): > 100 µM (inactive) | GI50 (UACC-257): > 100 µM (inactive) | GI50 (HT-29): > 100 µM (inactive) | GI50 (MDA-MB-231): > 100 µM (inactive) | GI50 (OVCAR-5): > 100 µM (inactive) | GI50 (T47D): > 100 µM (inactive) | GI50 (HOP-62): > 100 µM (inactive) | GI50 (HCC 2998): > 100 µM (inactive) | GI50 (CAKI-1): > 100 µM (inactive) | GI50 (MOLT-4): > 100 µM (inactive) | GI50 (SF-539): > 100 µM (inactive) | GI50 (KM12): > 100 µM (inactive) | GI50 (SW-620): > 100 µM (inactive) | GI50 (RPMI-8226): > 100 µM (inactive) | GI50 (HOP-92): > 100 µM (inactive) | GI50 (UO-31): > 100 µM (inactive) | GI50 (HL-60): > 100 µM (inactive) | GI50 (NCI-H522): > 100 µM (inactive) | GI50 (OVCAR-4): > 100 µM (inactive) | GI50 (786-0): > 100 µM (inactive) | GI50 (K562): > 100 µM (inactive) | GI50 (SF-295): > 100 µM (inactive) | GI50 (OVCAR-8): > 100 µM (inactive) | GI50 (SK-OV-3): > 100 µM (inactive) | GI50 (DU-145): > 100 µM (inactive) | GI50 (NCI-H226): > 100 µM (inactive) | GI50 (UACC-62): > 100 µM (inactive) | GI50 (HCT-116): > 100 µM (inactive) | GI50 (SF-268): > 100 µM (inactive) | GI50 (BT-549): > 100 µM (inactive) | GI50 (SK-MEL-5): > 100 µM (inactive) | GI50 (A549): > 100 µM (inactive) | GI50 (EKVX): > 100 µM (inactive) | GI50 (IGROV-1): > 100 µM (inactive) | GI50 (U-251): > 100 µM (inactive) | GI50 (NCI-H460): > 100 µM (inactive) | GI50 (Malme-3M): > 100 µM (inactive) | GI50 (M14): > 100 µM (inactive) | GI50 (MDA-MB-435): > 100 µM (inactive) | GI50 (ACHN): > 100 µM (inactive) | GI50 (OVCAR-3): 60.4 µM (inactive) | GI50 (LOX IMVI): > 100 µM (inactive) | GI50 (SNB-19): > 100 µM (inactive) | GI50 (PC-3): > 100 µM (inactive) | GI50 (MDA-N): > 100 µM (inactive) | GI50 (SNB-75): > 100 µM (inactive) | GI50 (NCI/ADR-RES): > 100 µM (inactive) | GI50 (Hs-578T): > 100 µM (inactive) | GI50 (TK-10): > 100 µM (inactive) | GI50 (CCRF-CEM): > 100 µM (inactive)
